How the values were obtained:
[1] = tested on: Clostridium difficile; settings: cited from earlier work
[2] = stability under extreme conditions; format: physicochemical
Excerpt: As discussed above, Form C of Fidaxomycin has advantageous properties. In particular, Form C of Fidaxomycin of the present invention can be reproduced in a high quality, i.e., chemical and polymorphical purity. The X-ray powder diffraction pattern of Form C is obtained in high crystallinity, as indicated by a high resolution PXRD pattern with relatively sharp, defined peaks. In addition, Form C is stable under extreme conditions.

[3] = hygroscopicity test according to the European pharmacopeia 5.11; format: physicochemical; settings: Ph. Eur. chapter 5.11 hygroscopicity test
Excerpt: As used herein and unless indicated otherwise, the term “non-hygroscopic” in relation to crystalline Fidaxomycin refers to less than 0.5%, and preferably less than 0.2% (w/w) absorption of water, for example atmospheric water, by the crystalline Fidaxomycin, as determined according to Ph. Eur. chapter 5.11 (“Hygroscopicity”).
As discussed above, Fidaxomycin Form Z1 has advantageous properties. In particular, the crystalline Fidaxomycin Form Z1 of the present invention is non-hygroscopic. When performing the hygroscopicity test according to the European pharmacopeia 5.11, the mass increase of Form Z1 was below about 0.2%. The advantageous of form Z1 as non-hygroscopic material provides better processing of Fidaxomycin in formulation. e.g., being less sticky and stable following granulation procedure.

[4] = stability in formulations; format: physicochemical; settings: retains the anhydrous polymorph
Excerpt: The ability to retain the anhydrous polymorph provides an opportunity to improve the performance characteristic in formulation e.g. dissolution profile and bioavailability.

CCc1c(Cl)c(O)c(Cl)c(O)c1C(=O)O[C@H]1[C@H](O)[C@H](OC)[C@H](OC/C2=C\C=C\C[C@H](O)/C(C)=C/[C@H](CC)[C@@H](O[C@@H]3OC(C)(C)[C@@H](OC(=O)C(C)C)[C@H](O)[C@@H]3O)/C(C)=C/C(C)=C/C[C@@H]([C@@H](C)O)OC2=O)O[C@@H]1C [Fidaxomycin, 3-(((6-Deoxy-4-O-(3,5-dichloro-2-ethyl-4,6-dihydroxybenzoyl)-2-O-methyl-β-D-mannopyranosyl)oxy)-methyl)-12(R)-[(6-deoxy-5-C-methyl-4-O-(2-methyl-1-oxopropyl)-b-D-lyxo-hexopyranosyl)oxy]-11(S)-ethyl-8(S)-hydroxy-18(S)-(1(R)-hydroxyethyl)-9,13,15-trimethyloxacyclooctadeca-3,5,9,13,15-pentaene-2-one]
activity against Clostridium difficile [1]: shows activity

CCc1c(Cl)c(O)c(Cl)c(O)c1C(=O)O[C@H]1[C@H](O)[C@H](OC)[C@H](OC/C2=C\C=C\C[C@H](O)/C(C)=C/[C@H](CC)[C@@H](O[C@@H]3OC(C)(C)[C@@H](OC(=O)C(C)C)[C@H](O)[C@@H]3O)/C(C)=C/C(C)=C/C[C@@H]([C@@H](C)O)OC2=O)O[C@@H]1C [Form C]
stability under extreme conditions [2]: stable

CCc1c(Cl)c(O)c(Cl)c(O)c1C(=O)O[C@H]1[C@H](O)[C@H](OC)[C@H](OC/C2=C\C=C\C[C@H](O)/C(C)=C/[C@H](CC)[C@@H](O[C@@H]3OC(C)(C)[C@@H](OC(=O)C(C)C)[C@H](O)[C@@H]3O)/C(C)=C/C(C)=C/C[C@@H]([C@@H](C)O)OC2=O)O[C@@H]1C [Form Z1]
mass increase (hygroscopicity) [3]: below 0.2%
stability in formulations [4]: excellent stability

Source: patent US8722863B2, “Solid state forms of fidaxomycin and processes for preparation thereof” (Teva Pharmaceutical Works Ltd., priority 2012, dated 2014)
